The values that follow come from US8877820B2, “Compositions comprising a retinoid and an NFkB-inhibitor and their methods of use” (Johnson & Johnson Consumer Companies, Inc., priority 2010, dated 2014).

The structures appear in SMILES notation.

For the assay, the system named is NF-κB gene reporter in FB293 cells. Briefly: NFκB-INHIBITION TEST (luciferase gene reporter, TNFα-stimulated FB293 cells). The class given is cell-based, human. The note with it: for Percent NF-kB Inhibition: FB293 cells, TNFα 100 ng/ml, 24 h; for NF-κB inhibition (in words): summary of Table 2. As to the method:
The NFκB-INHIBITION TEST is conducted in the following manner. FB293 cells, a stable transfected human epithelial cell line containing the gene reporter for NF-κB are used. They may be obtained from, e.g., Panomics (Fremont, Calif.). FB293 are plated at a density of 5×10^4 cells/mL in a suitable medium, e.g., Dulbecco's modified Eagle's medium (DMEM) supplemented with 10% fetal bovine serum (Invitrogen, San Diego, Calif.). The FB293 cells are stimulated with 100 ng/mL of Tumor Necrosis Factor-α (TNFα, available from Sigma-Aldrich of St Louis, Mo.) in the presence of the test sample. Separately, a control sample is tested wherein no test sample is applied. Following a 24-hour incubation at 37° C. with 5% CO2, cells are lysed with 40 μl of reporter lysis buffer (Promega, Madison, Wis.). A 20-μl aliquot of the lysate is assayed using a luciferase assay kit (Promega) and counted for 10 s in a Lmax luminometer (Molecular Devices, Sunnyvale, Calif.) with the data represented as the relative light unit/second. Percent NFκB Inhibition of the test sample is calculated as: NFκB Inhibition=[1−(Lsample/Lcontrol)]*100 where Lsample is the luminescence of the sample and Lcontrol is the luminescence of the control.
The NFκB-INHIBITION TEST described above was performed on test samples of Bay 11-7082 (Sigma-Aldrich, St. Louis, Mo.), Tetrahydrocurcuminoids CG (Sabinsa Corporation, Piscataway, N.J.), as well as various concentrations of 4-hexylresorcinol. The results are shown in Table 2, in which NF-κB Gene Reporter Activation (Luminescence, L) is reported for the test samples and a control sample. Percent NF-κB Inhibition is also reported.

On to `CCCCCCc1ccc(O)cc1O` [4-Hexylresorcinol, 4-Hexyl resorcinol], for which the “NF-κB inhibition (in words)” value was “strong NF-κB inhibition”. The “Percent NF-kB Inhibition” value (1 μg/ml) was 1.9%. The “Percent NF-kB Inhibition” value (5 μg/ml) is on record as 50.9%. Under “10 μg/ml”, the “Percent NF-kB Inhibition” value was determined as 72.9%. Also, the “Percent NF-kB Inhibition” value (50 μg/ml) is reported as 91.4%.

Take `Cc1ccc(S(=O)(=O)/C=C/C#N)cc1` [Bay 11-7082, (E)-3-(4-methylphenylsulfonyl)-2-propenenitrile]: the “NF-κB inhibition (in words)” value is given as “strong NF-κB inhibition”. Also, the “Percent NF-kB Inhibition” value (25 μM) turned out to be 89.5%.
